Source: the supplement of paper PMC10307832

Columns and labels:
Assay in all cases: relative viability (nuclei count vs DMSO), 5 days (fraction); higher = more cells survive
H3255 = conditions: first compound 1 µM
How it was run: (§1)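 Lung cancer cell lines in 1536-well plates were dosed by pin tool the day after seeding, either with one drug alone or with a fixed anchor-drug dose plus five library-drug doses (not always all listed) in √10 steps. After 5 days, cells were fixed and their nuclei stained in one step (final 0.05% Triton X-100, 1% formaldehyde, 1 ug/ml Hoechst), then counted on 4× images. Relative viability is the nuclei count in treated wells divided by that in vehicle wells. Values are medians of duplicate plates.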

NCI-H650 = system: NCI-H650
How it was run: as §1

NCI-H1666 = system: NCI-H1666
How it was run: as §1

BEN = system: BEN
How it was run: as §1

NCI-H2087 = system: NCI-H2087
How it was run: as §1

COR-L 105 = system: COR-L 105
How it was run: as §1

LU99A = system: LU99A
How it was run: as §1

NCI-H2085 = system: NCI-H2085
How it was run: as §1

LCLC-97TM1 = system: LCLC-97TM1
How it was run: as §1

201T = system: 201T
How it was run: as §1

NCI-H2170 = system: NCI-H2170
How it was run: as §1

PC-3 [JPC-3] = system: PC-3 [JPC-3]
How it was run: as §1

SMILES: O=c1cc(N2CCOCC2)oc2c(-c3cccc4c3sc3ccccc34)cccc12 + Nc1nc2[nH]cc(CCc3ccc(C(=O)N[C@@H](CCC(=O)O)C(=O)O)cc3)c2c(=O)[nH]1 [Pemetrexed] (partner 0.2 µM)
- relative viability (H3255): 0.553
- relative viability (NCI-H650; first compound 0.01 µM): 0.764
- relative viability (NCI-H650; first compound 0.03162 µM): 1.08
- relative viability (NCI-H650; first compound 0.3162 µM): 0.85
- relative viability (NCI-H650; first compound 1 µM): 0.786
- relative viability (NCI-H1666; first compound 0.01 µM): 0.944
- relative viability (NCI-H1666; first compound 0.03162 µM): 0.912
- relative viability (NCI-H1666; first compound 0.1 µM): 0.896
- relative viability (NCI-H1666; first compound 0.3162 µM): 0.779
- relative viability (NCI-H1666; first compound 1 µM): 0.82
- relative viability (BEN; first compound 0.01 µM): 0.79
- relative viability (BEN; first compound 0.03162 µM): 0.746
- relative viability (BEN; first compound 0.1 µM): 0.653
- relative viability (BEN; first compound 0.3162 µM): 0.89
- relative viability (BEN; first compound 1 µM): 0.705
- relative viability (NCI-H2087; first compound 0.01 µM): 0.665
- relative viability (NCI-H2087; first compound 0.03162 µM): 0.633
- relative viability (NCI-H2087; first compound 0.1 µM): 0.693
- relative viability (NCI-H2087; first compound 0.3162 µM): 0.662
- relative viability (NCI-H2087; first compound 1 µM): 0.651
- relative viability (COR-L 105; first compound 0.01 µM): 1.09
- relative viability (COR-L 105; first compound 0.03162 µM): 0.949
- relative viability (COR-L 105; first compound 0.1 µM): 1.1
- relative viability (COR-L 105; first compound 0.3162 µM): 0.997
- relative viability (COR-L 105; first compound 1 µM): 0.854
- relative viability (LU99A; first compound 0.01 µM): 0.177
- relative viability (LU99A; first compound 0.03162 µM): 0.195
- relative viability (LU99A; first compound 0.1 µM): 0.139
- relative viability (LU99A; first compound 0.3162 µM): 0.19
- relative viability (LU99A; first compound 1 µM): 0.176
- relative viability (NCI-H2085; first compound 0.01 µM): 0.905
- relative viability (NCI-H2085; first compound 0.03162 µM): 0.851
- relative viability (NCI-H2085; first compound 0.1 µM): 0.849
- relative viability (NCI-H2085; first compound 0.3162 µM): 0.865
- relative viability (NCI-H2085; first compound 1 µM): 0.867
- relative viability (LCLC-97TM1; first compound 0.01 µM): 0.189
- relative viability (LCLC-97TM1; first compound 0.03162 µM): 0.162
- relative viability (LCLC-97TM1; first compound 0.1 µM): 0.202
- relative viability (LCLC-97TM1; first compound 0.3162 µM): 0.162
- relative viability (LCLC-97TM1; first compound 1 µM): 0.177
- relative viability (201T; first compound 0.01 µM): 0.326
- relative viability (201T; first compound 0.03162 µM): 0.316
- relative viability (201T; first compound 0.1 µM): 0.338
- relative viability (201T; first compound 0.3162 µM): 0.397
- relative viability (201T; first compound 1 µM): 0.359
- relative viability (NCI-H2170; first compound 0.01 µM): 0.253
- relative viability (NCI-H2170; first compound 0.03162 µM): 0.251
- relative viability (NCI-H2170; first compound 0.1 µM): 0.263
- relative viability (NCI-H2170; first compound 0.3162 µM): 0.267
- relative viability (NCI-H2170; first compound 1 µM): 0.255
- relative viability (PC-3 [JPC-3]; first compound 0.01 µM): 1.09
- relative viability (PC-3 [JPC-3]; first compound 0.03162 µM): 1.14
- relative viability (PC-3 [JPC-3]; first compound 0.1 µM): 1.05
- relative viability (PC-3 [JPC-3]; first compound 0.3162 µM): 1.1
- relative viability (PC-3 [JPC-3]; first compound 1 µM): 1.1
